Assays:
Format in all cases: functional
Malme-3M = experiment: Cytotoxicity against human MALME-3M cells assessed as cellular growth at 10 uM by SRB assay
HCT-116 = experiment: Cytotoxicity against human HCT116 cells assessed as cellular growth at 10 uM by SRB assay
OVCAR-8 = experiment: Cytotoxicity against human OVCAR8 cells assessed as cellular growth at 10 uM by SRB assay
SK-MEL-5 = experiment: Cytotoxicity against human SK-MEL-5 cells assessed as cellular growth at 10 uM by SRB assay
IGROV-1 = experiment: Cytotoxicity against human IGROV1 cells assessed as cellular growth at 10 uM by SRB assay
NCI-H460 = experiment: Cytotoxicity against human NCI-H460 cells assessed as cellular growth at 10 uM by SRB assay
K562 = experiment: Cytotoxicity against human K562 cells assessed as cellular growth at 10 uM by SRB assay
HOP-92 = experiment: Cytotoxicity against human HOP92 cells assessed as cellular growth at 10 uM by SRB assay
MDA-MB-468 = experiment: Cytotoxicity against human MDA-MB-468 cells assessed as cellular growth at 10 uM by SRB assay
MOLT-4 = experiment: Cytotoxicity against human MOLT4 cells assessed as cellular growth at 10 uM by SRB assay
OVCAR-4 = experiment: Cytotoxicity against human OVCAR4 cells assessed as cellular growth at 10 uM by SRB assay
COLO 205 = experiment: Cytotoxicity against human COLO205 cells assessed as cellular growth at 10 uM by SRB assay
SK-OV-3 = experiment: Cytotoxicity against human SKOV3 cells assessed as cellular growth at 10 uM by SRB assay
MDA-MB-231 = experiment: Cytotoxicity against human MDA-MB-231 cells assessed as cellular growth at 10 uM by SRB assay
HOP-62 = experiment: Cytotoxicity against human HOP62 cells assessed as cellular growth at 10 uM by SRB assay
DU-145 = experiment: Cytotoxicity against human DU145 cells assessed as cellular growth at 10 uM by SRB assay
A549 = experiment: Cytotoxicity against human A549 cells assessed as cellular growth at 10 uM by SRB assay
SK-MEL-2 = experiment: Cytotoxicity against human SK-MEL-2 cells assessed as cellular growth at 10 uM by SRB assay
OVCAR-5 = experiment: Cytotoxicity against human OVCAR5 cells assessed as cellular growth at 10 uM by SRB assay
MDA-MB-435 = experiment: Cytotoxicity against human MDA-MB-435 cells assessed as cellular growth at 10 uM by SRB assay

| SMILES | Activity (Malme-3M) [%] | Activity (HCT-116) [%] | Activity (OVCAR-8) [%] | Activity (SK-MEL-5) [%] | Activity (IGROV-1) [%] | Activity (NCI-H460) [%] | Activity (K562) [%] | Activity (HOP-92) [%] | Activity (MDA-MB-468) [%] | Activity (MOLT-4) [%] | Activity (OVCAR-4) [%] | Activity (COLO 205) [%] | Activity (SK-OV-3) [%] | Activity (MDA-MB-231) [%] | Activity (HOP-62) [%] | Activity (DU-145) [%] | Activity (A549) [%] | Activity (SK-MEL-2) [%] | Activity (OVCAR-5) [%] | Activity (MDA-MB-435) [%] |
| --- | --- | --- | --- | --- | --- | --- | --- | --- | --- | --- | --- | --- | --- | --- | --- | --- | --- | --- | --- | --- |
| CC1(C)CC(=O)c2cc3c(N)c(C(=O)NCc4ccccc4)sc3nc2C1 | 104.51 | 103.66 | 95.57 | 91.1 | 107.02 | 101.02 | 117.84 | 60.17 | 93.1 | 124.23 | 78.52 | 128.9 | 111.17 | 101.13 | 95.84 | 113.73 | 99.09 | 114.95 | 108.53 | 91.3 |
| N#Cc1ccc(-n2nnc3ccccc32)cc1C#N | 96.58 | 102.06 | 99.01 | 97.62 | 103.62 | 106.55 | 92.97 | 103.19 | 99.52 | 93.32 | 110.46 | 104.26 | 98.76 | 111.41 | 94.62 | 93.52 | 87.19 |  | 110.44 | 85.25 |
| Cc1ccc(Cl)cc1NC(=O)c1sc2nc3c(cc2c1N)C(=O)CCC3 | 81.13 | 67.98 | 89.97 | 26.98 | 75.72 | 28.15 | 33.61 | 56.86 | 8.44 | 84.85 | 90.15 | 39.71 | 42.36 | 80.03 | 60.95 | 77.37 | 53.86 | 64.51 | 94.25 | -3.04 |
| Cc1ccc(CNC(=O)c2[nH]c3ccccc3c2Cl)cc1 | 116.06 | 107.58 | 99.35 | 99.25 | 99.38 | 88.87 | 100.85 | 81.7 | 106.86 | 91.47 | 101.65 | 99.99 | 92.6 | 112.08 | 90.94 | 97.89 | 96.66 | 99.35 | 108.38 |  |
| COc1ccc(NC(=O)c2sc3nc4c(cc3c2N)C(=O)CCC4)cc1 | 102.12 | 97.11 | 107.58 | 98.62 | 114.88 | 96.07 | 116.6 | 78.47 | 87.19 | 115.9 | 107.69 | 122.21 | 115.02 | 116.49 | 112.48 | 102.19 | 97.44 | 114.87 | 99.71 | 97.12 |
| Nc1c(C(=O)NCc2ccccc2)sc2nc3c(cc12)C(=O)CCC3 | 139.75 | 108.9 | 114.43 | 100.24 | 124.94 | 101.03 | 111.11 | 79.65 | 116.37 | 119.87 | 117.19 | 133.04 | 111.91 | 111.36 | 115.1 | 127.66 | 103.07 | 121.61 | 113.08 |  |
| COc1ccc(S(=O)(=O)n2ccc(-c3ccc4c(c3)CCC(C)(C)O4)n2)cc1 | 109.7 | 68.33 | 83.81 | 42.57 | 90.82 | 75.37 | 55.64 | 61.38 | 36.58 | 65.89 | 52.32 | 107.28 | 90.41 | 87.67 | 112.43 |  | 73.96 | 84.41 | 108.8 | 74.3 |
